We go through 14 molecules from US20240317735A1, “HYDROISOQUINOLINE OR HYDRONAPHTHYRIDINE COMPOUNDS FOR THE TREATMENT OF AUTOIMMUNE DISEASE” (Hoffmann-La Roche Inc., priority 2020, published 2024).

Data set [1] deals with T1, TLR9 (Homo sapiens, UniProt Q9NR96).
T1 sequence (Q9NR96 26-1032): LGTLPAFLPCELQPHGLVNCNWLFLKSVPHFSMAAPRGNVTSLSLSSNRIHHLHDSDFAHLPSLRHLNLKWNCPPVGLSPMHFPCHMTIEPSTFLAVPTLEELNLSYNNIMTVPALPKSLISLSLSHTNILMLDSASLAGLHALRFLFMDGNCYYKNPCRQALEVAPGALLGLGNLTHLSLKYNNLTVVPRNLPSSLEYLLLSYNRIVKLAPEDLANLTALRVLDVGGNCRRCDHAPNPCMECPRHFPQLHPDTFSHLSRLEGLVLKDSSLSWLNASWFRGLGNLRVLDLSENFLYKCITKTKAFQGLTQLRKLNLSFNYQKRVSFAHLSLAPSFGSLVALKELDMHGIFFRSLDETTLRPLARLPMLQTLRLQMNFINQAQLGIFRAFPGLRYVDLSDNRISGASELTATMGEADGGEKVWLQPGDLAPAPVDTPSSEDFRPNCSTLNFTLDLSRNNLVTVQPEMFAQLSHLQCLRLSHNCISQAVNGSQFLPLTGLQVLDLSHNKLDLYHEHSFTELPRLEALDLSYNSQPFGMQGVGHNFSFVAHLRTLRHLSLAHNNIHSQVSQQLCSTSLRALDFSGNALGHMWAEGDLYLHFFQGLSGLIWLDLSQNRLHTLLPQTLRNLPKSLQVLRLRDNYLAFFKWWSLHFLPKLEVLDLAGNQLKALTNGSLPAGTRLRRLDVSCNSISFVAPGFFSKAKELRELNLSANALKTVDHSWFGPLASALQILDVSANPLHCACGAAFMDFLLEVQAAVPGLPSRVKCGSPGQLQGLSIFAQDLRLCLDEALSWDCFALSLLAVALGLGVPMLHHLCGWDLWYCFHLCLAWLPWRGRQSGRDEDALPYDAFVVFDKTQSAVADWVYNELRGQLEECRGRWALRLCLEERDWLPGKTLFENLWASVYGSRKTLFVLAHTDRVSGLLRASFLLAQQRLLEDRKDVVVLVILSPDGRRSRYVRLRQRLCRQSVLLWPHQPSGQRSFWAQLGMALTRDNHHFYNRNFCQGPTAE
Nature of the data set: Human PBMC cell-based assay (CpG ODN 2216 stimulation). On the set-up: These cells express TLR7, TLR8, or TLR9, and therefore are natural responders to respective ligand stimulation; endogenous in cells; host or cells: human PBMC from healthy donor whole blood. As to conditions: CpG ODN 2216 at 1 μM, overnight, read-out: hPBMC/TLR9 IC50. The text has this:
Unlike the HEK reporter cell lines, human peripheral blood mononuclear cell (PBMC) represents primary human immune cells in blood mainly consisting of lymphocytes, monocytes, and dendritic cells. These cells express TLR7, TLR8, or TLR9, and therefore are natural responders to respective ligand stimulation. Upon activation of these TLRs, PBMCs secrete similar cytokines and chemokines in vitro and in vivo, and therefore the in vitro potency of a TLR7/8/9 antagonist in human PBMC is readily translatable to its pharmacodynamics response in vivo.
Human peripheral blood mononuclear cells (PBMC) were isolated from freshly-drawn lithium-heparinized (Lithium Heparin Plus blood Collection tube, BD Vacutainer®) healthy donor whole blood by density gradient (Ficoll-Paque™ PLUS, GE Healthcare life Sciences). Briefly, 50 mL of blood was diluted with 25 mL PBS (without Ca^2+, Mg^2+) in a 50 mL conical tube with porous barrier (Leucosep tube, Greiner bio-one), where 15.5 mL Ficoll-Paque was under laid after spinning. Tubes were centrifuged for 20 minutes at 800×g (1946 rpm) with the brake in the off position, and PBMC were collected from the buffy coat. Cells were then washed twice in PBS, and red blood cells were lysed by suspension in 2 mL (Red Blood Cell Lysis Buffer, Alfa Aesar) for 5-10 minutes at room temperature. After a final wash in PBS, PBMC were resuspended at a final concentration of 2×10^6 cells/mL in RPMI-1640 media with GlutaMAX™ (Gibco) supplemented with 10% Fetal Bovine Serum (Sigma) and plated at 150 μL/well (3×10^5 cells/well) in tissue culture treated round bottom 96-well plates (Corning Incorporated). Antagonist compounds (compounds of this invention) solubilized and serial diluted in 100% DMSO were added in duplicate to cells to yield a final concentration of 1% DMSO (v/v). PBMC were incubated with antagonist compounds for 30 minutes at 37° C., 5% CO2 before adding various TLR agonist reagents in 48 μL complete media per well as follows (final concentrations indicated): CpG ODN 2216 (InvivoGen) at 1 μM for TLR9, ORN 06/LyoVec (InvivoGen) at […] for TLR8 and R848 (InvivoGen) at 1p g/mL for TLR7 and TLR8. PBMC were incubated overnight at 37° C. with 5% CO2. Cell culture supernatants were collected, and levels of various human cytokines were assessed by Luminex assay (ProcartaPlex™ Multiplex Immunoassay, Invitrogen) or ELISA procedure according to the manufacturer's recommended protocol (eBioscience, ThermoFisher Scientific). Viability of the cells was also checked with Cell Viability Assay (CellTiter Glo®Luminescent Cell Viability Assay, Promega).

Data set [2] has as its target T2, hERG channel (Homo sapiens, UniProt Q12809).
T2 construct: expressed in transfected cells; host or cells: CHO (CHOhERG)
Nature of the data set: hERG channel inhibition assay (patch-clamp, CHOhERG cells). In kind it is cell-based. Conditions: for IC50 / IC20: CHOhERG cells, whole-cell patch-clamp; for IC20: human, CHO cells stably expressing hERG (CHOhERG); for hERG IC20/TLR7 IC50 / hERG IC20/TLR8 IC50 / hERG IC20/TLR9 IC50: safety ratio; for hERG IC20/TLR7 IC50: hERG IC20 over HEK/hTLR7 IC50; for hERG IC20/TLR8 IC50: hERG IC20 over HEK/hTLR8 IC50; for hERG IC20/TLR9 IC50: hERG IC20 over HEK/hTLR9 IC50. How it is done: The hERG K^+ channels were cloned in humans and stably expressed in a CHO (Chinese hamster ovary) cell line. CHOhERG cells were used for patch-clamp (voltage-clamp, whole-cell) experiments. Cells were stimulated by a voltage pattern to activate hERG channels and conduct IKhERG currents (rapid delayed outward rectifier potassium current of the hERG channel). After the cells were stabilized for a few minutes, the amplitude and kinetics of IKhERG were recorded at a stimulation frequency of 0.1 Hz (6 bpm). Thereafter, the test compound was added to the preparation at increasing concentrations. For each concentration, an attempt was made to reach a steady-state effect, usually, this was achieved within 3-10 min at which time the next highest concentration was applied. The amplitude and kinetics of IKhERG are recorded in each concentration of the drug which were compared to the control values (taken as 100%). (references: Redfern W S, Carlsson L, Davis A S, Lynch W G, MacKenzie I, Palethorpe S, Siegl P K, Strang I, Sullivan A T, Wallis R, Camm A J, Hammond T G. 2003; Relationships between preclinical cardiac electrophysiology, clinical QT interval prolongation and torsade de pointes for a broad range of drugs: evidence for a provisional safety margin in drug development. Cardiovasc. Res. 58:32-45, Sanguinetti MC, Tristani-Firouzi M. 2006; hERG potassium channels and cardiac arrhythmia. Nature 440:463-469, Webster R, Leishman D, Walker D. 2002; Towards a drug concentration effect relationship for QT prolongation and torsades de pointes. Curr. Opin. Drug Discov. Devel. 5:116-26).

Some results are limits rather than exact numbers.

T2 sequence (Q12809 whole entry): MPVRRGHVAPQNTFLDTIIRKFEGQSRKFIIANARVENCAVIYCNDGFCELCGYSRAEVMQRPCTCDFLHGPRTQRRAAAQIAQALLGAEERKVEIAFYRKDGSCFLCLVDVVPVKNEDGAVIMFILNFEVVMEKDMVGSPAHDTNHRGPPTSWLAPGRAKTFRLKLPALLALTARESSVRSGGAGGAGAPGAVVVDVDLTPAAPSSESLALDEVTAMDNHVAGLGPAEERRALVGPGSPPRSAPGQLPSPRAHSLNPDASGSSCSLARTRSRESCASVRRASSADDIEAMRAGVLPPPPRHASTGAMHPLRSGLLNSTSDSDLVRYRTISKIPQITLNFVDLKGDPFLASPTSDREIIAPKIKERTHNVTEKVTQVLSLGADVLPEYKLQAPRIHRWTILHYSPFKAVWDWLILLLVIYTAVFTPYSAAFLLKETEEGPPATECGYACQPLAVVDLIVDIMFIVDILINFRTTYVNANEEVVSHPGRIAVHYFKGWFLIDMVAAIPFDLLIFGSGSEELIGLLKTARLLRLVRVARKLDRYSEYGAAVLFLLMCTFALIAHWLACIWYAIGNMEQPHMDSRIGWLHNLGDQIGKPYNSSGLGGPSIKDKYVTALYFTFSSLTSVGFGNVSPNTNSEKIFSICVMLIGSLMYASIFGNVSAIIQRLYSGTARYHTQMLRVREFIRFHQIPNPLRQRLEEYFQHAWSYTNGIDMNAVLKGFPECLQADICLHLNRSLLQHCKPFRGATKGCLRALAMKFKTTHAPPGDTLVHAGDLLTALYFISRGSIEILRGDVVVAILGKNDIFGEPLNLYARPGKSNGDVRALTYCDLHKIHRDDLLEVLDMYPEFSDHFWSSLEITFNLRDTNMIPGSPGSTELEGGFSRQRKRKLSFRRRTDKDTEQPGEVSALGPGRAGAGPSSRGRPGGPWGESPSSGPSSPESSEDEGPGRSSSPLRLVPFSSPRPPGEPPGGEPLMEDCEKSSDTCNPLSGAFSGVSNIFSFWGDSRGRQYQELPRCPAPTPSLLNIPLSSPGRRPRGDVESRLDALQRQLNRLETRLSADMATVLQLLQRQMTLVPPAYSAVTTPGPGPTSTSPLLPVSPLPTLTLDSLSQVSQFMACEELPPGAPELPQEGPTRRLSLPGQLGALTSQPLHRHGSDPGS

Turning to `C[C@H]1CN(c2ccnc3c2cnn3C)Cc2ccc(N3CCNCC3)cc21` [Example 1, (4R)-4-methyl-2-(1-methylpyrazolo[3,4-b]pyridin-4-yl)-6-piperazin-1-yl-3,4-dihydro-1H-isoquinoline], the IC50 in data set [1] amounted to 0.396 µM. In data set [2], the IC50 was > 20 µM, it took 6.4 µM to reach the 20% level (IC20), the “hERG IC20/TLR7 IC50” value is 2133.3 and the “hERG IC20/TLR8 IC50” value is recorded as 3200.0. Also, the “hERG IC20/TLR9 IC50” value in data set [2] stood at 32.3.

On to `Cn1ncc2c(N3CCc4cc(N5CCNCC5)ccc4C3)ccnc21` [Example 3, 2-(1-methylpyrazolo[3,4-b]pyridin-4-yl)-6-piperazin-1-yl-3,4-dihydro-1H-isoquinoline], for which the IC50 in data set [1] came out at 0.434 µM. Also, in data set [2], the IC50 was > 20 µM; the IC20 (in general, the concentration needed for an effect of 20%) was > 10 µM; the “hERG IC20/TLR7 IC50” value is reported as >526.3; the “hERG IC20/TLR8 IC50” value is on record as >178.6. Moreover, the “hERG IC20/TLR9 IC50” value in data set [2] was >54.1.

In the case of `CC1CN(c2ccnc3c2cnn3C)Cc2ccc(N3CCC4(CCNCC4)CC3)cc21` (centres unmarked) [Example 4, 3-[4-methyl-2-(1-methylpyrazolo[3,4-b]pyridin-4-yl)-3,4-dihydro-1H-isoquinolin-6-yl]-3,9-diazaspiro[5.5]undecane], the IC50 in data set [1] was 0.265 µM.

As to `Cc1cc(N2Cc3ccc(N4CCC5(CCNCC5)CC4)cc3C(C)C2)c2cnn(C)c2n1` (centres unmarked) [Example 5, 3-[2-(1,6-dimethylpyrazolo[3,4-b]pyridin-4-yl)-4-methyl-3,4-dihydro-1H-isoquinolin-6-yl]-3,9-diazaspiro[5.5]undecane], the IC50 in data set [1] turned out to be 0.156 µM.

Consider `C[C@H]1CN(c2ccnc3c2cnn3C)Cc2ccc(N3CCN(c4cc5c(cn4)CCNC5)CC3)cc21` [Example 9, 7-[4-[(4R)-4-methyl-2-(1-methylpyrazolo[3,4-b]pyridin-4-yl)-3,4-dihydro-1H-isoquinolin-6-yl]piperazin-1-yl]-1,2,3,4-tetrahydro-2,6-naphthyridine], for which the IC50 in data set [1] was determined as 0.326 µM.

`C[C@H]1CN(c2ccnc3c2cnn3C)Cc2ccc(OC[C@H]3CNCCN3)cc21` [Example 18, (4R)-4-methyl-2-(1-methylpyrazolo[3,4-b]pyridin-4-yl)-6-[[(2R)-piperazin-2-yl]methoxy]-3,4-dihydro-1H-isoquinoline]: the IC50 in data set [1] was 0.365 µM. For the same molecule, in data set [2], the IC50 is > 20 µM, the IC20 was > 10 µM, the “hERG IC20/TLR7 IC50” value is on record as >1250.0 and the “hERG IC20/TLR8 IC50” value is listed as >2500.0. In addition, in data set [2], the “hERG IC20/TLR9 IC50” value is on record as >90.1.

On to `CO[C@@H]1CN(c2ccc3c(c2)[C@@H](C)CN(c2cc(C)nc4c2cnn4C)C3)C[C@H]1N` [Example 23, (3R,4R)-4-methoxy-1-[(4R)-2-(1,6-dimethylpyrazolo[3,4-b]pyridin-4-yl)-4-methyl-3,4-dihydro-1H-isoquinolin-6-yl]pyrrolidin-3-amine], for which the IC50 in data set [1] is 0.24 µM.

For the molecule `C[C@H]1CN(c2ccnc3c2cnn3C)Cc2ccc(N3CCC(N4CC(N)C4)CC3)cc21` [Example 28, 1-[1-[(4R)-4-methyl-2-(1-methylpyrazolo[3,4-b]pyridin-4-yl)-3,4-dihydro-1H-isoquinolin-6-yl]-4-piperidyl]azetidin-3-amine], the IC50 in data set [1] was 0.271 µM.

For `Cc1cc(N2Cc3ccc(N4C[C@@H](N)[C@H](O)C4)cc3[C@@H](C)C2)c2cnn(C)c2n1` [Example 47, trans-4-amino-1-[(4R)-2-(1,6-dimethylpyrazolo[3,4-b]pyridin-4-yl)-4-methyl-3,4-dihydro-1H-isoquinolin-6-yl]pyrrolidin-3-ol], the IC50 in data set [1] amounted to 0.29 µM.

For the molecule `C[C@H]1CN(c2ccnc3c2cnn3C)Cc2ccc(N3CCN[C@@H](CO)C3)cc21` [Example 50, [(2R)-4-[(4R)-4-methyl-2-(1-methylpyrazolo[3,4-b]pyridin-4-yl)-3,4-dihydro-1H-isoquinolin-6-yl]piperazin-2-yl]methanol], the IC50 in data set [1] was found to be 0.475 µM.

On to `Cc1cc(N2Cc3ccc(N4CCC(N)CC4)nc3[C@@H](C)C2)c2cnn(C)c2n1` [Example 58, 1-[(8S)-6-(1,6-dimethylpyrazolo[3,4-b]pyridin-4-yl)-8-methyl-7,8-dihydro-5H-1,6-naphthyridin-2-yl]piperidin-4-amine], for which the IC50 in data set [1] is 0.277 µM.

In the case of `CO[C@@H]1CN(c2ccc3c(n2)[C@@H](C)CN(c2cc(C)nc4c2cnn4C)C3)C[C@H]1N` [Example 63, (3R,4R)-4-methoxy-1-[(8S)-6-(1,6-dimethylpyrazolo[3,4-b]pyridin-4-yl)-8-methyl-7,8-dihydro-5H-1,6-naphthyridin-2-yl]pyrrolidin-3-amine], in data set [1], the IC50 worked out at 0.43 µM.

As to `CO[C@H]1CN(c2ccc3c(n2)[C@@H](C)CN(c2cc(C)nc4c2cnn4C)C3)CC[C@@H]1N` [Example 65, (3S,4S)-3-methoxy-1-[(8S)-6-(1,6-dimethylpyrazolo[3,4-b]pyridin-4-yl)-8-methyl-7,8-dihydro-5H-1,6-naphthyridin-2-yl]piperidin-4-amine], the IC50 in data set [1] stood at 0.371 µM.

As to `Cc1cc(N2Cc3cnc(N4CCNCC4)cc3[C@@H](C)C2)c2cnn(C)c2n1` [Example 74, (4R)-2-(1,6-dimethylpyrazolo[3,4-b]pyridin-4-yl)-4-methyl-6-piperazin-1-yl-3,4-dihydro-1H-2,7-naphthyridine], the IC50 in data set [1] was 0.25 µM.
